From patent US20090263492A1, “Diagnostic Methods and Genetic Markers for Alzheimer Disease” (priority 2006, published 2009)

tested on: Mgat3 transcription; assay: qPCR of Mgat3 transcription in PBMC's from AD patients cultured with Aβ and test agent; assay type: cell-based, human; design: key to Relative Activity: relative ratio of Mgat3 transcription in AD/Mgat3 transcription in control cells: Dash (−) indicates minimal effect; (+) indicates a ratio of 1.0-1.5; (++) indicates a ratio of 1.5-2.0; (+++ to ++++) indicates a ratio of 2.0 and above; (+++ to ++++) indicates a ratio of 2.0 and above; settings: Homo sapiens; curcumins 0.1 uM, PBMC's from AD patients cultured overnight with Aβ, 2 hours incubation, qPCR; read-out: Relative Activity: relative ratio of Mgat3 transcription in AD/Mgat3 transcription in control cells
Method: RNA Isolation and qPCR. RNA was isolated as above from PBMC's (10 million) of each subject, which were cultured overnight with or without Aβ (2 μg/ml); and cDNA was synthesized using the iSCRIPT cDNA Synthesis Kit. The expression levels of the genes of interest were tested by qPCR on a real-time PCR detector and normalized to the levels of the housekeeping gene 36B4 with the following primers: […]
SYBR Green reactions were carried out with the IQ SYBR Green mix. Reactions were run on a Continuous Fluorescence detector and analyzed. The relative quantities of the gene tested per sample were calculated against 36B4 using the ΔΔC(T) formula as previously described. The results are expressed as log [MGAT (or TLR) RNA (with Aβ)/MGAT (or TLR) RNA (without Aβ)] for each specimen. For evaluation of curcumins or curcumin analogs the above assay was used. Curcumins (0.1 uM) were added to PBMC's from AD patients cultured overnight with ±Aβ as above. After 2 hours of incubation with the curcumin or analog, RNA was isolated and cDNA was synthesized as above. The expression levels of Mgat3 or TLR transcription was quantified and normalized to the levels of housekeeping genes and compared to cells treated with curcumin or analogs with or without Aβ vs. untreated cells. The amount of Mgat3 (or TLR) RNA with Aβ and test agent/Mgat3 (or TLR) RNA withal alone)] for each cell preparation in the presence of test agent was determined. The ratio was used to determine the potency of the agent tested. Potent compounds had elevated ratios (>1.5) and were used to rank the relative activity of each test agent (Table 2).
Curcumins. […] Crude natural product derived materials (i.e., curcuminoids) enhance phagocytosis of Aβ by macrophages from AD patients in approximately 50% of the cases examined. […] The material was purified to near homogeneity and identified by LCMS as bisdesmethoxycurcumin on the basis of its molecular ion and fragmentation pattern. To verify the biological activity of this minor constituent, bisdesmethoxycurcumin was chemically synthesized and tested in the phagocytosis and transcription assays described above (see Example 4). Compared with curcumin, both the bisdesmethoxycurcumin material isolated by chromatography and the chemically synthesized bisdesmethoxycurcumin material optimally stimulated phagocytosis at 0.1 μM. To determine whether functional improvement would be accompanied by biochemical changes, we tested transcriptional up-regulation of MGA T3 and TLR's in PBMC's from AD patients and controls in the presence of Aβ with bisdesmethoxycurcumin (0.1 μM) in comparison to Aβ alone. […] Thus, curcumins (0.1 uM) were added to PBMC's from AD patients cultured overnight with Aβ as above. After 2 hours of incubation, RNA was isolated and cDNA was synthesized. The expression levels of Mgat3 or TLR transcription was quantified and normalized to the levels of housekeeping genes and compared to cells treated with curcumin or analogs without Aβ. The amount of Mgat3 (or TLR) RNA with test agent and Aβ)/Mgat3 (or TLR) RNA (with Aβ alone)] for each cell preparation in the presence of test agent was determined. The ratio was used to determine the potency of the agent tested. Potent compounds had elevated ratios (>1.5) and were used to rank the relative activity (Table 2).
Mgat3 and TLR transcription in cells from AD and control patients. We tested by qPCR Mgat3 and/0or TLR transcription in cells from AD patients and compared the results to those obtained from age-matched controls (Table 2). As discussed above, activation or up-regulation of macrophage Mgat3 or TLR's results in many functional outcomes, including the enhancement of […] and removal of Aβ, increased apoptosis, secretion of inflammatory cytokines, and other anti-AD antimicrobial activities. […] Thus, the ratio of Mgat3 or TLR transcription upon Aβ stimulation of AD versus control PBMCs provides an indicator and sensitive method to test the in vitro efficacy of drug candidates. […]

Row | Compound | fold induction at 0.1 µM
1 | O=C(/C=C(O)/C=C/c1ccccc1)/C=C/c1ccccc1 [Compound 6, (1E,4Z,6E)-5-hydroxy-1,7-diphenylhepta-1,4,6-trien-3-one] | 1 to 1.5
2 | COc1cc(C=CC(=O)C=C(O)C=Cc2ccc(O)c(OC)c2)ccc1O [Compound 5h, 5-Hydroxy-1,7-bis-(4-hydroxy-3-methoxy-phenyl)-hepta-1,4,6-trien-3-one] | 1 to 1.5
3 | COc1cc(O)ccc1C=CC(=O)C=C(O)C=Cc1ccc(O)cc1OC [Compound 5i, 5-Hydroxy-1,7-bis-(4-hydroxy-2-methoxy-phenyl)-hepta-1,4,6-trien-3-one] | 1.5 to 2
4 | CN(C)c1ccc(C=CC(=O)C=C(O)C=Cc2ccc(N(C)C)cc2)cc1 [Compound 5f, 1,7-Bis-(4-dimethylamino-phenyl)-5-hydroxy-hepta-1,4,6-trien-3-one] | ≥ 2
5 | COc1ccc(C=CC(=O)C=C(O)C=Cc2ccc(OC)c(O)c2)cc1O [Compound 5g, 5-Hydroxy-1,7-bis-(3-hydroxy-4-methoxy-phenyl)-hepta-1,4,6-trien-3-one] | 1 to 1.5
6 | COc1ccccc1C=CC(=O)C=C(O)C=Cc1ccccc1OC [Compound 5l, 5-Hydroxy-1,7-bis-(2-methoxy-phenyl)-hepta-1,4,6-trien-3-one] | ≥ 2
7 | O=C(C=Cc1cccc(O)c1)C=C(O)C=Cc1cccc(O)c1 [Compound 5e, 5-Hydroxy-1,7-bis-(3-hydroxy-phenyl)-hepta-1,4,6-trien-3-one] | 1 to 1.5
8 | CC(C)(C)c1ccc(/C=C/C(=O)/C=C(O)/C=C/c2ccc(C(C)(C)C)cc2)cc1 [Compound 10, (1E,4Z,6E)-1,7-bis(4-tert-butylphenyl)-5-hydroxyhepta-1,4,6-trien-3-one] | 1 to 1.5

same assay, conditions: curcumins 0.1 uM, PBMC's from AD patients cultured overnight with Aβ, 2 hours incubation, qPCR

Row | Compound | Relative Activity: relative ratio of Mgat3 transcription in AD/Mgat3 transcription in control cells
9 | COc1ccc(C=CC(=O)C=C(O)C=Cc2ccc(OC)cc2O)c(O)c1 [Compound 5j, 5-Hydroxy-1,7-bis-(2-hydroxy-4-methoxy-phenyl)-hepta-1,4,6-trien-3-one] | −
10 | O=C(C=Cc1ccc(O)c(Cl)c1)C=C(O)C=Cc1ccc(O)c(Cl)c1 [Compound 5k, 1,7-Bis-(3-chloro-4-hydroxy-phenyl)-5-Hydroxy-hepta-1,4,6-trien-3-one] | −
11 | COc1ccc(C=CC(=O)C=C(O)C=Cc2ccc(OC)cc2)cc1 [Compound 5b, 5-Hydroxy-1,7-bis-(4-methoxy-phenyl)-hepta-1,4,6-trien-3-one] | −
12 | Cc1ccc(/C=C/C(=O)/C=C(O)/C=C/c2ccc(C)cc2)cc1 [Compound 7] | ++ ((++) indicates a ratio of 1.5-2.0)
13 | CC(C)(C)C(=O)Oc1ccc(C=CC(=O)CC(=O)C=Cc2ccc(OC(=O)C(C)(C)C)cc2)cc1 [Compound 5d, 2,2-Dimethyl-propionic acid 4-{7-[4-(2,2-dimethyl-propionyloxy)-phenyl]-3,5-dioxo-hepta-1,6-dienyl}-phenyl ester] | −
14 | CSc1ccc(/C=C/C(=O)/C=C(O)/C=C/c2ccc(SC)cc2)cc1 [Compound 9] | ++++ ((+++ to ++++) indicates a ratio of 2.0 and above)
15 | CC(=O)Oc1ccc(C=CC(=O)C=C(O)C=Cc2ccc(OC(C)=O)cc2)cc1 [Compound 5c, Aceticacid 4-[7-(4-acetoxy-phenyl)-5-hydroxy-3-oxo-hepta-1,4,6-trienyl]-phenyl ester] | −
16 | O=C(/C=C(O)/C=C/c1cccc(F)c1)/C=C/c1cccc(F)c1 [Compound 8] | + ((+) indicates a ratio of 1.0-1.5)

tested on: macrophages of AD patients; assay: Phagocytosis of FITC-amyloid-beta (1-42) by macrophages of AD patients; assay type: cell-based, human; settings: in vitro treatment during Aβ phagocytosis, fluorescence/confocal microscopy
Description: (§1) Peripheral blood mononuclear cells (PBMC's) and macrophages. AD patients were recruited at the time of enrollment in a double-blind study of curcumin Complex 3 in progress at UCLA. The diagnostic criteria for AD satisfied the National Institute of Neurological and Communicative Disorders and the AD and Related Disorders Association criteria for probable Alzheimer's disease. Normal age-matched control subjects were recruited. PBMC's were isolated by the Ficoll Hypaque gradient technique from venous blood. To prepare macrophage slide cultures, 50,000 PBMC's were cultured in each well of an 8-chamber polystyrene vessel glass slide in Iscove's medium with 10% autologous serum until differentiated into adherent macrophages (7-14 days).
Phagocytosis assay and confocal microscopy. Macrophages were exposed to FITC-amyloid-beta (1-42) (2 μg/ml) overnight, fixed with 4% paraformaldehyde, permeabilized with 0.1% Triton X-100, blocked with 1% BSA in PBS and stained with Rab 5 or EEA1 antibodies by indirect immunofluorescence; lysosomes were stained intravitally by the Lyso-Tracker probe; macrophages were stained using anti-CD68; neurons were stained using anti-NeuN. The preparations were examined using fluorescence and confocal microscopy.
Ability of monocytes to clear Aβ in the brain. Co-culture of freshly isolated monocytes with sections of AD frontal lobe to test the ability of monocytes to clear Aβ in the brain was done. One third of control monocytes became saturated with Aβ in 2 days and 100% in 4 days. […] Apoptosis of macrophages treated with Aβ was done with the SR-VAD-FMK polycaspase assay. Differentiated macrophages were treated with curcuminoids or analogs in the medium overnight and were then exposed to FITC-Aβ (1-42) to 2.5 μg/ml, incubated for 24 or 48 h and examined by fluorescence or confocal microscopy.
Curcuminoids reverse defective phagocytosis of amyloid-beta by macrophages of individual AD patients. […] Macrophages were visualized using anti-CD68 or fluorescent phalloidin with a fluorescence microscope.

Row | Compound | effect on Aβ phagocytosis/uptake by AD macrophages
17 | IGF-1: the hormone insulin-like growth factor (IGF-I) | improves Aβ phagocytosis

tested on: control macrophages; assay: Phagocytosis / uptake of FITC-Aβ by control macrophages; assay type: cell-based, human; settings: Example 5; control or AD macrophages not specified
Description: as §1
Phagocytosis assay and confocal microscopy. […] The preparations were examined using fluorescence and confocal microscopy. […]
Curcuminoids reverse defective phagocytosis of amyloid-beta by macrophages of individual AD patients. […] Macrophages were visualized using anti-CD68 or fluorescent phalloidin with a fluorescence microscope. […]

Row | Compound | block of uptake of Aβ
18 | Fucoidan | did not block uptake of Aβ

tested on: not given; assay: not given; settings: not given

Row | Compound | melting point [°C]
19 | COc1ccc(C=CC(=O)C=C(O)C=Cc2ccc(OC)c(O)c2)cc1O [Compound 5g, 5-Hydroxy-1,7-bis-(3-hydroxy-4-methoxy-phenyl)-hepta-1,4,6-trien-3-one] | 182.8
